How the values were obtained:
[1] = tested on: Carrageenin edema in rat's paw; assay: Carrageenin Edema Test in Rat's Paw (anti-inflammatory activity, Table 1); format: in vivo; conditions: 100 mg/kg oral; for inhibition in vivo at 100 mg/kg: hydrochloride, rat; for anti-inflammatory activity in comparison with compounds of the invention: Carrageenin edema
Method: An anti-inflammatory activity was measured by orally administering 100 mg/kg of a hydrochloride of the indazole derivative of this invention as set forth in Table 1 to an animal in accordance with the standard method of Carrageenin Edema Test in Rat's Paw described in C. A. Winter et al., Proc. Soc. Exp. Biol. Med., 111, 544 (1962).

in vivo = conditions: mouse, ip, intraperitoneal, hydrochloride, male ddy mice

SMILES	inhibition in vivo at 100 mg/kg [1]	LD50 (in vivo)	anti-inflammatory activity in comparison with compounds of the invention [1]
CCN(CC)CCCn1nc(N)c2c(Cl)cccc21 [(1), 1-(3-Diethylaminopropyl)-3-amino-4-chloroindazole]	58%	171 mg/kg	
CCN(CC)CCCn1nc(N)c2cc(Cl)ccc21 [(2), 1-(3-Diethylaminopropyl)-3-amino-5-chloroindazole]	55%	192 mg/kg	
CCN(CC)CCCn1nc(N)c2ccc(Cl)cc21 [(3), 1-(3-Diethylaminopropyl)-3-amino-6-chloroindazole]	54%	241 mg/kg	
CCN(CC)CCCn1nc(N)c2cccc(Cl)c21 [(4), 1-(3-Diethylaminopropyl)-3-amino-7-chloroindazole]	59%	273 mg/kg	
CCN(CC)CCCn1nc(N)c2cc(N)ccc21 [(5), 1-(3-Diethylaminopropyl)-3,5-diaminoindazole]	59%	311 mg/kg	
CCN(CC)CCCn1nc(N)c2cc(OC)ccc21 [(6), 1-(3-Diethylaminopropyl)-3-amino-5-methoxyindazole]	56%	188 mg/kg	
CCN(CC)CCCn1nc(N)c2cc(C)ccc21 [(7), 1-(3-Diethylaminopropyl)-3-amino-5-methylindazole]	58%	221 mg/kg	
CCCCN(CCCC)CCCn1nc(N)c2cc(Cl)ccc21 [(8), 1-(3-Di-n-butylaminopropyl)-3-amino-5-chloroindazole]	56%	231 mg/kg	
CC(CCn1nc(N)c2cc(Cl)ccc21)N(C)C (centres unmarked) [(9), 1-(3-Dimethylaminobutyl)-3-amino-5-chloroindazole]	37%	113 mg/kg	
CCN(CC)C(CCn1nc(N)c2cc(Cl)ccc21)CC(C)C (centres unmarked) [(10), 1-(3-Diethylamino-5-methylhexyl)-3-amino-5-chloroindazole]	49%	239 mg/kg	
Nc1nn(CCCN2CCCCC2)c2ccc(Cl)cc12 [(11), 1-(3-Piperidinopropyl)-3-amino-5-chloroindazole]	54%	211 mg/kg	
Nc1nn(CCCCCCN2CCCCC2)c2ccc(Cl)cc12 [(12), 1-(6-Piperidinohexyl)-3-amino-5-chloroindazole]	28%	337 mg/kg	
CC(CCn1nc(N)c2cc(Cl)ccc21)N1CCCCC1 (centres unmarked) [(13), 1-(3-Piperidinobutyl)-3-amino-5-chloroindazole]	49%	310 mg/kg	
CC(C)CC(CCn1nc(N)c2cc(Cl)ccc21)N1CCCCC1 (centres unmarked) [(14), 1-(3-Piperidino-5-methylhexyl)-3-amino-5-chloroindazole]	34%	301 mg/kg	
CC1CCCCN1CCCn1nc(N)c2cc(Cl)ccc21 (centres unmarked) [(15), 1-[3-(2-Methylpiperidino)propyl]-3-amino-5-chloroindazole]	50%	250 mg/kg	
CC1CCCC(C)N1CCCn1nc(N)c2cc(Cl)ccc21 (centres unmarked) [(16), 1-[3-(2,6-Dimethylpiperidino)propyl]-3-amino-5-chloroindazole]	33%	214 mg/kg	
Nc1nn(CCCN2CCC(O)CC2)c2ccc(Cl)cc12 [(17), 1-[3-(4-Hydroxypiperidino)propyl]-3-amino-5-chloroindazole]	37%	251 mg/kg	
Nc1nn(CCCN2CCC(Cl)CC2)c2ccc(Cl)cc12 [(18), 1-[3-(4-Chloropiperidino)propyl]-3-amino-5-chloroindazole]	66%	278 mg/kg	
Nc1nn(CCCN2CCCCCC2)c2ccc(Cl)cc12 [(19), 1-(3-Homopiperidinopropyl)-3-amino-5-chloroindazole]	38%	251 mg/kg	
CN1CCN(CCCn2nc(N)c3cc(Cl)ccc32)CC1 [(20), 1-[3-(4-Methylpiperazino)propyl]-3-amino-5-chloroindazole]	26%	278 mg/kg	
Nc1nn(CCCN2CCCC2)c2ccc(Cl)cc12 [(21), 1-(3-Pyrrolidinopropyl)-3-amino-5-chloroindazole]	39%	311 mg/kg	
Nc1nn(CCCN2CCOCC2)c2ccc(Cl)cc12 [(22), 1-(3-Morpholinopropyl)-3-amino-5-chloroindazole]	46%	388 mg/kg	
CCN(CC)CCCn1nc(N)c2c(O)cccc21 [(23), 1-(3-Diethylaminopropyl)-3-amino-4-hydroxyindazole]	56%	179 mg/kg	
CCN(CC)CCCn1nc(N)c2cc(O)ccc21 [(24), 1-(3-Diethylaminopropyl)-3-amino-5-hydroxyindazole]	53%	161 mg/kg	
CCN(CC)CCCn1nc(N)c2ccc(O)cc21 [(25), 1-(3-Diethylaminopropyl)-3-amino-6-hydroxyindazole]	52%	301 mg/kg	

SMILES	inhibition in vivo at 100 mg/kg [1]	LD50 (in vivo)	anti-inflammatory activity in comparison with compounds of the invention [1]
CCN(CC)CCCn1nc(N)c2cccc(O)c21 [(26), 1-(3-Diethylaminopropyl)-3-amino-7-hydroxyindazole]	57%	297 mg/kg	
CCN(CC)CCCn1nc(N)c2cc(I)ccc21 [(27), 1-(3-Diethylaminopropyl)-3-amino-5-iodoindazole]	57%	281 mg/kg	
CCN(CC)CCCn1nc(N)c2cccc(I)c21 [(28), 1-(3-Diethylaminopropyl)-3-amino-7-iodoindazole]	54%	103 mg/kg	
CCN(CC)CCCn1nc(N)c2cc(N)cc(N)c21 [(29), 1-(3-Diethylaminopropyl)-3,5,7-triaminoindazole]	56%	104 mg/kg	
CCCCN(CCCC)CCCn1nc(N)c2cc(O)ccc21 [(30), 1-(3-Di-n-butylaminopropyl)-3-amino-5-hydroxyindazole]	54%	255 mg/kg	
CC(CCn1nc(N)c2cc(O)ccc21)N(C)C (centres unmarked) [(31), 1-(3-Dimethylaminobutyl)-3-amino-5-hydroxyindazole]	35%	241 mg/kg	
CCN(CC)C(CCn1nc(N)c2cc(O)ccc21)CC(C)C (centres unmarked) [(32), 1-(3-Diethylamino-5-methylhexyl)-3-amino-5-hydroxyindazole]	47%	251 mg/kg	
Nc1nn(CCCN2CCCCC2)c2ccc(O)cc12 [(33), 1-(3-Piperidinopropyl)-3-amino-5-hydroxyindazole]	52%	227 mg/kg	
Nc1nn(CCCCCCN2CCCCC2)c2ccc(O)cc12 [(34), 1-(6-Piperidinohexyl)-3-amino-5-hydroxyindazole]	26%	231 mg/kg	
CC(CCn1nc(N)c2cc(O)ccc21)N1CCCCC1 (centres unmarked) [(35), 1-(3-Piperidinobutyl)-3-amino-5-hydroxyindazole]	47%	246 mg/kg	
CC(C)CC(CCn1nc(N)c2cc(O)ccc21)N1CCCCC1 (centres unmarked) [(36), 1-(3-Piperidino-5-methylhexyl)-3-amino-5-hydroxyindazole]	32%	251 mg/kg	
CC1CCCCN1CCCn1nc(N)c2cc(O)ccc21 (centres unmarked) [(37), 1-[3-(2-Methylpiperidino)propyl]-3-amino-5-hydroxyindazole]	48%	267 mg/kg	
CC1CCCC(C)N1CCCn1nc(N)c2cc(O)ccc21 (centres unmarked) [(38), 1-[3-(2,6-Dimethylpiperidino)propyl]-3-amino-5-hydroxyindazole]	31%	278 mg/kg	
Nc1nn(CCCN2CCC(O)CC2)c2ccc(O)cc12 [(39), 1-[3-(4-Hydroxypiperidino)propyl]-3-amino-5-hydroxyindazole]	35%	311 mg/kg	
Nc1nn(CCCN2CCC(Cl)CC2)c2ccc(O)cc12 [(40), 1-[3-(4-Chloropiperidino)propyl]-3-amino-5-hydroxyindazole]	64%	335 mg/kg	
Nc1nn(CCCN2CCCCCC2)c2ccc(O)cc12 [(41), 1-(3-Homopiperidinopropyl)-3-amino-5-hydroxyindazole]	36%	340 mg/kg	
CN1CCN(CCCn2nc(N)c3cc(O)ccc32)CC1 [(42), 1-[3-(4-Methylpiperazino)propyl]-3-amino-5-hydroxyindazole]	24%	341 mg/kg	
Nc1nn(CCCN2CCCC2)c2ccc(O)cc12 [(43), 1-(3-Pyrrolidinopropyl)-3-amino-5-hydroxyindazole]	36%	211 mg/kg	
Nc1nn(CCCN2CCOCC2)c2ccc(O)cc12 [(44), 1-(3-Morpholinopropyl)-3-amino-5-hydroxyindazole]	46%	368 mg/kg	
CCN(CC)CCCNc1n[nH]c2cccc(Cl)c12 [(45), 3-(3-Diethylaminopropylamino)-4-chloroindazole]	61%	271 mg/kg	
CCN(CC)CCCNc1n[nH]c2cc(Cl)ccc12 [(47), 3-(3-Diethylaminopropylamino)-6-chloroindazole]	58%	278 mg/kg	
CCCn1nc(N)c2ccccc21 [Compound C-1, 1-propyl-3-aminoindazole, reference compound]	7%		little anti-inflammatory activity
Nc1nn(CCc2ccccc2)c2ccccc12 [Compound C-2, 1-(2-phenylethyl)-3-aminoindazole, reference compound]	7%		little anti-inflammatory activity
Nc1n[nH]c2c(N)cccc12 [Compound C-3, 3,7-diaminoindazole, reference compound]	6%		little anti-inflammatory activity

From patent US4751302A, “Indazole derivatives” (priority 1982, dated 1988)
